In patent publication US20220402935A1, “HETEROCYCLIC COMPOUND” (FIMECS, INC., priority 2019, published 2022):
pIC50: −log10 of the molar value.

Experiments:
[1] = target: T1, human XIAP_BIR3 domain purified protein (Homo sapiens, UniProt P98170); test: XIAP binding inhibitory activity (HTRF, b-Smac ligand); details: second symbol of cell; read-out: XIAP binding inhibition IC50 value
T1 construct: purchased R & D
Outline: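 HTRF competition between compound and C-terminally biotinylated Smac peptide AVPIAQK for His-tagged XIAP BIR3, both diluted to 90 nM before addition, in pH 7.5 HEPES/NaCl/BSA/Triton buffer. Eu-cryptate anti-His and streptavidin-XL665 added, ≥4 h at room temperature in the dark; inhibition % from 665/615 nm ratio versus no-compound wells.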

IRAK-M [2] = target: T2, IRAK-M (Homo sapiens, UniProt Q9Y616); test: In vitro degradation activity of target protein (IRAK-M ELISA in THP1 cells); type: cell-based; parameters: host or cells: THP1 cells; details: 24 hours, second symbol of cell, read-out: IRAK-M 50% degradation concentration (DC50 value)
T2 sequence (Q9Y616 1-596): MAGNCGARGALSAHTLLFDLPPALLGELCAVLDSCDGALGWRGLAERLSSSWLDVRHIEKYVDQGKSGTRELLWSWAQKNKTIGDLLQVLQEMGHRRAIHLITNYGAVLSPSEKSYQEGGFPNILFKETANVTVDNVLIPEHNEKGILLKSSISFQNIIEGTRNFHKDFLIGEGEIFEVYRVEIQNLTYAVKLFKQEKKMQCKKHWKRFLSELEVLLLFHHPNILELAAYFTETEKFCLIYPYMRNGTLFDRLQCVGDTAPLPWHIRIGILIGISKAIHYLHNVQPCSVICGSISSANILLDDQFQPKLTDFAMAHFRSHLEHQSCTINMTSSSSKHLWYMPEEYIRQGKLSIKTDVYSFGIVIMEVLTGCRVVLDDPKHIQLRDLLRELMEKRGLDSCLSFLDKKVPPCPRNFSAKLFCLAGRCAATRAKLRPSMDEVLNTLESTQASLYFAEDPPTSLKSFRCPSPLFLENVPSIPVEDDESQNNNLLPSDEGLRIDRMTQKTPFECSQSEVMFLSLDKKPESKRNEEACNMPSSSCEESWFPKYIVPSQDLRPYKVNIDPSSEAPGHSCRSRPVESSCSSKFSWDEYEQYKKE
Method: In vitro degradation activities of target protein of the example compounds were evaluated using Enzyme-linked immuno-sorbent assay (ELISA) by the following assay steps. THP1 cells (ATCC, TIB-202) were cultured in RPMI-1640 supplemented with 10% FBS, lx sodium pyruvate, lx HEPES, D-(+)-glucose and 1% penicillin/streptomycin. THP1 cells were seeded at a density of 1×10^6 cells/well in 24-well plate and treated with DMSO control or test compound, and then incubated for 24 hours. The cells were collected and lysed on ice for 30 minutes in lysis buffer (PBS containing 0.1% Triton X-100) containing a protease inhibitor cocktail (Roche, Cat #11836170001). The lysates were sonicated for 30 sec ON/30 sec OFF for ten cycles and centrifuged for 10 minutes at 13k rpm at 4° C. Protein concentrations were determined by the BCA assay (Sigma, Cat #QPBCA-1KT). The ELISA assay was performed using the Human IRAK3/IRAKM/IRAK-M ELISA Kit (LifeSpan BioSciences, Cat #LS-F35271), and the protein levels of IRAK-M were evaluated according to the kit protocol. As to the IRAK-M degradation rate of test compounds, protein degradation rate (%) when the concentration of the test compound is […] described as A≥75%, 50%≤B<75%, 25%≤C<50%, D<25%, or 50% degradation concentration (DC50 value) described as A<0.03 μM, 0.03 μM≤B<0.1 μM, 0.1 μM≤C<0.3 μM, 0.3 μM≤D<1 μM, is shown in the table below.

IRAK-M [3] = target: T2, IRAK-M; test: IRAK-M binding inhibitory activity (KINOMEscan active site-dependent competitive assay); parameters: purchased Eurofins Discover X; details: concentration of the test compound 1 μM; first symbol of cell; read-out: IRAK-M binding inhibition activity % Ctrl
Outline: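 Active site-dependent competition binding assay (KINOMEscan) against human IRAK-M. Result expressed as % Ctrl = (compound signal − positive control signal)/(DMSO signal − positive control signal) × 100, where DMSO = 100% Ctrl and control compound = 0% Ctrl.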

T1 sequence (P98170 252-356 limits assumed): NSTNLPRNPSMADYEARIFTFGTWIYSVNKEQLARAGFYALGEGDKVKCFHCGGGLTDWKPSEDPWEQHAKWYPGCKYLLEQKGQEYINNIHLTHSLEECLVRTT

pIC50 [1] | DC50 (IRAK-M [2]) [nM] | remaining binding at 1 µM (IRAK-M [3]) [%] | Structure (SMILES)
4.52 to 5.52 | 300 to 1000 | 25 to 50 | CN[C@@H](C)C(=O)N[C@H](C(=O)N1CCN(C(=O)c2c(Cl)c3cc(F)ccc3n2CC(=O)N2CCC[C@H]2COc2cc(CN3CCC(Oc4ccnc5ccsc45)CC3)on2)CC1)C1CCCCC1 [Example 40, (S)-N-((S)-2-(4-(3-chloro-5-fluoro-1-(2-oxo-2-((S)-2-(((5-((4-(thieno[3,2-b]pyridin-7-yloxy)piperidin-1-yl)methyl)isoxazol-3-yl)oxy)methyl)pyrrolidin-1-yl)ethyl)-1H-indole-2-carbonyl)piperazin-1-yl)-1-cyclohexyl-2-oxoethyl)-2-(methylamino)propanamide]
4.52 to 5.52 | 100 to 300 | 25 to 50 | CN[C@@H](C)C(=O)N[C@H](C(=O)N1CCN(C(=O)c2c(F)c3cc(F)ccc3n2CC(=O)N2CCC[C@H]2COc2cc(CN3CCC(Oc4ccnc5ccsc45)CC3)on2)CC1)C1CCCCC1 [Example 41, (S)-N-((S)-1-cyclohexyl-2-(4-(3,5-difluoro-1-(2-oxo-2-((S)-2-(((5-((4-(thieno[3,2-b]pyridin-7-yloxy)piperidin-1-yl)methyl)isoxazol-3-yl)oxy)methyl)pyrrolidin-1-yl)ethyl)-1H-indole-2-carbonyl)piperazin-1-yl)-2-oxoethyl)-2-(methylamino)propanamide]

More lines, now with the values behind:

Structure (SMILES) | pIC50 [1] | DC50 (IRAK-M [2]) [nM] | remaining binding at 1 µM (IRAK-M [3]) [%]
CN[C@@H](C)C(=O)N[C@H](C(=O)N1CCN(C(=O)c2c(Cl)c3ccccc3n2CC(=O)N2CCC[C@H]2COc2cc(CN3CCC(Oc4ccnc5ccsc45)CC3)on2)CC1)C1CCCCC1 [Example 38, (S)-N-((S)-2-(4-(3-chloro-1-(2-oxo-2-((S)-2-(((5-((4-(thieno[3,2-b]pyridin-7-yloxy)piperidin-1-yl)methyl)isoxazol-3-yl)oxy)methyl)pyrrolidin-1-yl)ethyl)-1H-indole-2-carbonyl)piperazin-1-yl)-1-cyclohexyl-2-oxoethyl)-2-(methylamino)propanamide] | 4.52 to 5.52 | 300 to 1000 | 25 to 50
CN[C@@H](C)C(=O)N[C@H](C(=O)N1CCN(C(=O)c2c(C)c3cc(F)ccc3n2CC(=O)N2CCC[C@H]2COc2cc(CN3CCC(Oc4ccnc5ccsc45)CC3)on2)CC1)C1CCCCC1 [Example 39, (S)-N-((S)-1-cyclohexyl-2-(4-(5-fluoro-3-methyl-1-(2-oxo-2-((S)-2-(((5-((4-(thieno[3,2-b]pyridin-7-yloxy)piperidin-1-yl)methyl)isoxazol-3-yl)oxy)methyl)pyrrolidin-1-yl)ethyl)-1H-indole-2-carbonyl)piperazin-1-yl)-2-oxoethyl)-2-(methylamino)propanamide] | 4.52 to 5.52 | 100 to 300 | 25 to 50
CN[C@@H](C)C(=O)N[C@H](C(=O)N1CCN(C(=O)c2cc3cc(F)c(F)cc3n2CC(=O)N2CCOC[C@H]2COc2cc(CN3CCC(Oc4ccnc5ccsc45)CC3)on2)CC1)C1CCCCC1 [Example 44, (S)-N-((S)-1-cyclohexyl-2-(4-(5,6-difluoro-1-(2-oxo-2-((S)-3-(((5-((4-(thieno[3,2-b]pyridin-7-yloxy)piperidin-1-yl)methyl)isoxazol-3-yl)oxy)methyl)morpholino)ethyl)-1H-indole-2-carbonyl)piperazin-1-yl)-2-oxoethyl)-2-(methylamino)propanamide] | 4.52 to 5.52 | 300 to 1000 | 25 to 50
CN[C@@H](C)C(=O)N[C@H](C(=O)N1CCN(C(=O)c2cc3c(OCCOCCOCCOCCOc4cc(CN5CCC(Oc6ccnc7ccsc67)CC5)on4)c(F)c(F)cc3n2C)CC1)C1CCCCC1 [Example 51, (S)-N-((S)-1-cyclohexyl-2-(4-(5,6-difluoro-1-methyl-4-(2-(2-(2-(2-((5-((4-(thieno[3,2-b]pyridin-7-yloxy)piperidin-1-yl)methyl)isoxazol-3-yl)oxy)ethoxy)ethoxy)ethoxy)ethoxy)-1H-indole-2-carbonyl)piperazin-1-yl)-2-oxoethyl)-2-(methylamino)propanamide] | 5.52 to 6.52 | 100 to 300 | < 25
CN[C@@H](C)C(=O)N[C@H](C(=O)N1CCC[C@H]1c1nc(C(=O)c2cccc(OCCOCCOCCOc3cc(CN4CCC(Oc5ccnc6ccsc56)CC4)on3)c2)cs1)C1CCCCC1 [Example 59, (S)-N-((S)-1-cyclohexyl-2-oxo-2-((S)-2-(4-(3-(2-(2-(2-((5-((4-(thieno[3,2-b]pyridin-7-yloxy)piperidin-1-yl)methyl)isoxazol-3-yl)oxy)ethoxy)ethoxy)ethoxy)benzoyl)thiazol-2-yl)pyrrolidin-1-yl)ethyl)-2-(methylamino)propanamide] | > 6.52 | 300 to 1000 | < 25
